Laboratory results: patent US20100311805A1, “COMBINATION OF HISTONE DEACETYLASE INHIBITORS AND RADIATION” (NOVARTIS AG, priority 2005, published 2010)

Assays:
H460 cell lines = assay: Clonogenic analysis of H460 cell lines with LBH589 and 0-6 Gy; assay type: cell-based, human
Protocol: Results. LBH589 sensitizes NSCLC to the cytotoxic effects of ionizing radiation. Clonogenic analysis of H460 cell lines was performed using LBH589 and 0-6 Gy. […] Cells were suspended, counted with a hemocytometer, and plated at specific cell densities. Once attached, cells were treated with LBH589 for 1 hour or 18 hours followed by 0, 2, 4, or 6 Gy. Media was changed after IR and the cells were allowed to proliferate for 10 days. Shown is the average and standard error of the relative fractions of colonies (n=3).

H23 cell line [1] = assay: Annexin V-FITC/PI flow cytometry analysis of apoptosis, H23; assay type: cell-based, human
Protocol: (§1) LBH589 enhances radiation induced apoptosis. To study the effect of HDAC inhibition by LBH589 on apoptosis three in vitro experiments were performed. FIG. 2 show results from Annexin V-FITC/PI flow cytometry analysis of apoptosis. H23 and H460 cells lines were treated with 25 nM LBH589 for 18 hrs then irradiated with 3 Gy. Twenty (20) hours later, cells were harvested, stained with Annexin-FITC and PI, and analyzed by flow cytometry. Shown is the number of apoptotic cells and standard error (n=3) for each treatment condition. *P<0.05 compared to control.

H460 cell line [2] = assay: Annexin V-FITC/PI flow cytometry analysis of apoptosis, H460; assay type: cell-based, human
Protocol: as §1

H23 cell line [3] = assay: Nuclear morphology (pyknotic nuclei) by DAPI staining, H23; assay type: cell-based, human
Protocol: (§2) To confirm the ability of LBH589 to sensitize human lung cancer cell lines to radiation induced apoptosis, nuclear morphology studies were performed. […] DAPI staining of cells treated with LBH589 and IR. Cells were subcultured onto slides and treated with 25 nM LBH589 for 18 hours followed by 3 Gy. Eighteen (18) hours later cells were fixed and stained with DAPI. Shown is the percentage of pyknotic nuclei and standard error (n=3) determined by manual counts from microscopy. *P<0.05 compared to control.

H460 cell line [4] = assay: Nuclear morphology (pyknotic nuclei) by DAPI staining, H460; assay type: cell-based, human
Protocol: as §2

cleaved caspase3 [5] = assay: Western immunoblot for cleaved caspase3, H23 whole cell lysates; assay type: cell-based, human
Protocol: (§3) Western Immunoblots. LLC, H450 and H23 cells are serum starved overnight in DMEM/F-12 media (Gibco). Cells are then treated with 10 μM of Compound III for 1 hour and/or irradiated with 3 Gy. Cells are washed twice with PBS and lysis buffer ([…] Tris, 150 mM NaCl, 1 mM EDTA, 1% Triton X-100, 2.5 mM Na PP, 1 mM phenylmethylsulfonyl fluoride, and 1 μg/mL leupeptin) are added. Protein concentration are quantified by the Bio-Rad method. Twenty (20) μg of total protein are loaded into each well and separated by 7% or 10% SDS-PAGE gel, depending on the size of the target protein being investigated. The proteins are transferred onto nitrocellulose membranes (Hybond ECL; Amersham, Arlington Heights, Ill.) and probed with primary antibodies to caspase3, cleaved caspase3, phospho-Akt, Akt, PDGFR α and β (Cell Signaling; 1:1000). Blots are washed and probed with goat anti-rabbit secondary antibody (Sigma; 1:1000). Cleavage of caspase 3 was analyzed to verify the role of apoptosis in cells treated with LBH589 and radiation. Western blot analysis was performed on H23 and H460 whole cell lysates. […] LBH589 induced caspase3 cleavage. H23 and H460 cells were treated with 25 nM LBH589 for 18 hours then irradiated with 3 Gy. Six hours later, protein was extracted, quantified, run in a 12% SDS-polyacrylamide gel, transferred, and probed with antibodies to cleaved caspase3 and actin. […]

cleaved caspase3 [6] = assay: Western immunoblot for cleaved caspase3, H460 whole cell lysates; assay type: cell-based, human
Protocol: as §3

H460 cells = assay: Tumor growth delay in H460 xenograft tumor model; assay type: in vivo, nude mice; conditions: 10-fold increase in tumor volume as reference
Protocol: Tumor Volume Assessment. LLC, H450 and H23 cells are implanted into C57BL6 and nude mice, respectively. 106 viable cells suspended in 0.1 mL of cell medium are injected s.c. into the hind-limb. Each group of mice are comprised of 12 mice which are stratified into two groups to create approximately the same mean tumor volume. The mean volume of the tumors in mice at the time of treatment (day 0) with radiation, control, irradiated, LBH589 alone and LBH589 given prior to radiation are approximately 200 mm^3. Irradiated mice are immobilized with 140 μL of ketamine, and the entire body are shielded with lead, except for the tumor-bearing hind limb. A total dose of 21 Gy are administered in seven fractionated doses on days 0-4, 7 and 8. The LBH589 group receive of LBH589 administered p.o. via esophageal injection on days-1 and 6.
Tumor volumes were measured on days 0, 2, 4, 7, 9, 11, 14, 16, 18, 20 and 22 using skin calipers. Tumor volumes were calculated from a formula (a×b×c/2) that are derived from the formula for an ellipsoid (πd3/6). Data were calculated as the percentage of original (day 0) tumor volume and graphed as fractional tumor volume±SD for each treatment group. […]
H460 cells were injected in the hind limb of nude mice and allowed to grow for one week. […] B, shown is the mean tumor growth delay and standard error calculated using a 10-fold increase in tumor volume as reference.

[7] = mouse, in vivo
Protocol: LBH589 enhances tumor growth delay in vivo. H460 cells were injected into the hind limb of mice. After tumor formation the mice were treated with two oral doses of 40 mg LBH589 and/or five 3 Gy fractions over seven days. […] IR alone delayed growth by approximately 4 days (P<0.001).

γ-H2AX foci [8] = assay: γ-H2AX foci immunostaining, H23; assay type: cell-based, human
Protocol: LBH589 prolongs the duration of radiation induced γ-H2AX foci. Immunostaining was performed to study γ-H2AX foci present at DNA double strand breaks. […] The red staining of γ-H2AX foci and blue staining of the DAPI counterstain are shown. 3 Gy induced γ-H2AX foci as early as 30 minutes following treatment. These foci disappeared by 6 hrs in cell lines treated with IR alone. […] In comparison, LBH589 added 18 hours prior to IR prolonged the duration of γ-H2AX foci for up to 24 hours after IR (42 hours after LBH589 administration). […] LBH589 prolongs duration of γ-H2AX foci in irradiated lung cancer cells. H23 cell line received the indicated treatment of 25 nM LBH589 and/or 3 Gy. Anti-γ-H2AX antibody was used for immunostaining with rhodamine red labeled secondary antibody (red). Cells were counterstained with DAPI (blue). Shown are representative photographs of the H23 cells line (A) at the indicated time points after IR. Arrows point to apoptotic cells. B, shown is the mean and standard error of cells with γ-H2AX nuclear foci. *P<0.05 compared to control.

γ-H2AX foci [9] = assay: γ-H2AX foci immunostaining, H460; assay type: cell-based, human
HDAC4 [10] = assay: HDAC4 immunostaining (compartmentalization), H460; assay type: cell-based, human
Protocol: (§4) Immunostaining of HDAC4 was performed on H23 and H460 cell lines to identify the effect of LBH589 on HDAC4 compartmentalization. […] When H460 cells were treated with 3 Gy, HDAC4 localized to the nucleus at 2 hours and minimal HDAC4 was present in the cytoplasm.

HDAC4 [11] = assay: HDAC4 immunostaining (compartmentalization), H23; assay type: cell-based, human; conditions: LBH589 added prior to IR
Protocol: as §4

[12] = 25 nM LBH589 18 hours prior to 3 Gy, 18 hours later
[13] = 25 nM LBH589 18 hours prior to IR 3 Gy, 6 hours later

**Q.** Which “colony survival compared to untreated cells” value (H460 cell lines; LBH589 1 hour and 18 hours prior to IR (0-6 Gy), 10 days proliferation) does the source give for `Cc1[nH]c2ccccc2c1CCNCc1ccc(/C=C/C(=O)NO)cc1` [LBH589, N-hydroxy-3-[4-[[[2-(2-methyl-1H-indol-3-yl)-ethyl]-amino]methyl]phenyl]-2E-2-propenamide] here?
**A.** Its value is “synergistic decrease in colony survival”.

**Q.** What about the plating efficiency (H460 cell lines; LBH589 alone for 1 hour, compared to the control) of the same compound?
**A.** Its plating efficiency is “no reduced plating efficiency”.

**Q.** And the plating efficiency (H460 cell lines; LBH589 alone for 18 hours)?
**A.** The plating efficiency was “significantly reduced plating efficiency”.

**Q.** And the “number of apoptotic cells” value (H23 cell line [1]; 25 nM LBH589 18 hrs prior to 3 Gy, 20 hours later, control 7%)?
**A.** Its value is 30%.

**Q.** And the “number of apoptotic cells” value (H23 cell line [1]; LBH589 alone 25 nM)?
**A.** Its value is “only a minimal increase”.

**Q.** What about the “number of apoptotic cells” value (H460 cell line [2]; 25 nM LBH589 18 hrs prior to 3 Gy, 20 hours later, control 6%) of the same compound?
**A.** Its value is 25%.

**Q.** And the “number of apoptotic cells” value (H460 cell line [2]; LBH589 alone 25 nM)?
**A.** Its value is “only a minimal increase”.

**Q.** And the “percentage of pyknotic nuclei” value (H23 cell line [3]; [12])?
**A.** Its value is “over 10%”.

**Q.** And the apoptotic nuclei (H23 cell line [3]; LBH589 alone)?
**A.** Its apoptotic nuclei is 4%.

**Q.** And the “percentage of pyknotic nuclei” value (H460 cell line [4]; [12])?
**A.** The value was “over 10%”.

**Q.** What about the apoptotic nuclei (H460 cell line [4]; LBH589 alone) of the same compound?
**A.** The apoptotic nuclei was 2%.

**Q.** And the “caspase3 cleavage, increase with LBH589 prior to IR” value (cleaved caspase3 [5]; [13])?
**A.** Its value is “not as prominent”.

**Q.** And the caspase3 cleavage (cleaved caspase3 [5]; treatment with 25 nM LBH589)?
**A.** Its caspase3 cleavage is “increase in caspase3 cleavage was evident”.

**Q.** What about the caspase3 cleavage (cleaved caspase3 [6]; [13]) of the same compound?
**A.** Its caspase3 cleavage is “increased levels of caspase3 cleavage”.

**Q.** What about the caspase3 cleavage (cleaved caspase3 [6]; treatment with 25 nM LBH589) of the same compound?
**A.** Its caspase3 cleavage is “increase in caspase3 cleavage was evident”.

**Q.** What about the tumor growth delay (H460 cells; LBH589 alone, two oral doses of 40 mg over seven days) of the same compound?
**A.** Its tumor growth delay is “two”.

**Q.** What about the tumor growth delay (H460 cells; combined: two oral doses of 40 mg LBH589 and five 3 Gy fractions over seven days) of the same compound?
**A.** Its tumor growth delay is “approximately 20 days”.

**Q.** What about the “signs of toxicity as monitored by weight loss and mobility” value [7] of the same compound?
**A.** Its value is “minimal signs of toxicity”.

**Q.** What about the “cells with γ-H2AX nuclear foci at 24 hours” value (γ-H2AX foci [8]; 25 nM LBH589 alone) of the same compound?
**A.** Its value is under 5%.

**Q.** And the “residual γ-H2AX foci at 24 hours” value (γ-H2AX foci [8]; 25 nM LBH589 prior to IR 3 Gy)?
**A.** Its value is 60%.

**Q.** What about the “duration of γ-H2AX foci after IR” value (γ-H2AX foci [8]; LBH589 added 18 hours prior to IR 3 Gy) of the same compound?
**A.** The value was “up to 24 hours”.

**Q.** And the γ-H2AX foci (γ-H2AX foci [8]; LBH589 alone for 20 hours)?
**A.** The γ-H2AX foci was “modest increase in γ-H2AX foci”.

**Q.** And the “cells with γ-H2AX nuclear foci at 24 hours” value (γ-H2AX foci [9]; 25 nM LBH589 alone)?
**A.** The value was under 5%.

**Q.** What about the “residual γ-H2AX foci at 24 hours” value (γ-H2AX foci [9]; 25 nM LBH589 prior to IR 3 Gy) of the same compound?
**A.** Its value is 60%.

**Q.** And the HDAC4 nuclear localization (HDAC4 [10]; LBH589 added prior to IR 3 Gy)?
**A.** The HDAC4 nuclear localization was “markedly limited HDAC4 nuclear localization”.

**Q.** And the “HDAC4 staining / localization” value (HDAC4 [10]; LBH589 alone)?
**A.** The value was “background HDAC4 staining in the cytoplasm and nucleus”.

**Q.** And the HDAC4 nuclear localization (HDAC4 [11])?
**A.** Its HDAC4 nuclear localization is “A similar effect was seen”.
